Test in all cases: NCI tumour cell line growth inhibition, 48 h
In experiment [1] the test system is OVCAR-5 ovarian.
Experiment [2] concerns UACC-62 melanoma.
The subject of experiment [3] is A498 renal.
Experiment [4] has as its system COLO 205 colon.
Experiment [5] has as its system SR leukemia.
For experiment [6], the system named is U251 CNS.
Experiment [7] concerns SN12C renal.
Experiment [8] has as its system NCI-H226 lung.
Experiment [9] relates to BT-549 breast.
Experiment [10] concerns MOLT-4 leukemia.
Experiment [11] relates to TK-10 renal.
The subject of experiment [12] is HT29 colon.
Experiment [13] deals with HOP-62 NSCLC.
Experiment [14] concerns CAKI-1 renal.
The subject of experiment [15] is K-562 leukemia.
In experiment [16] the test system is IGROV1 ovarian.
In experiment [17] the test system is RPMI-8226 leukemia.
Experiment [18] concerns SNB-19 CNS.
The subject of experiment [19] is NCI-H460 lung.
The test system of experiment [20] is SF-295 CNS.

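The compound was tested at five concentrations on cells cultured in 96-well plates, with a 48-hour exposure period. At the TGI there is no net growth.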

`CC(C)(CCCCC(C)(C)NCC1COc2ccccc2O1)NCC1COc2ccccc2O1` (stereo not given): the TGI in experiment [1] is greater than 10 µM; in [2], 9.93 µM; in [3], greater than 10 µM; in experiment [4], 4.12 µM; in experiment [5], greater than 10 µM; in experiment [6], greater than 10 µM. Further, the TGI in [7] was greater than 10 µM; in experiment [8] it was greater than 10 µM; in experiment [9] it was greater than 10 µM; in [10], greater than 10 µM; in experiment [11] it was greater than 10 µM; in experiment [12] it was 7.08 µM. Further, the TGI in experiment [13], in experiment [14], in [15], in experiment [16], in [17] and in experiment [18] was greater than 10 µM throughout. Also, the TGI in experiment [19] and in experiment [20] was greater than 10 µM each time.

For the compound `COc1ccc(-n2cnc3c(NC(C)(C)C(=O)O)ncnc32)cc1`, the TGI in [1], in [2], in experiment [3], in experiment [4], in experiment [5] and in experiment [6] was greater than 100 µM each time. In addition, the TGI in experiment [7], in [8], in experiment [9], in experiment [10], in [11] and in experiment [12] was greater than 100 µM in each case. The TGI in [13], in [14], in [15], in experiment [16], in experiment [17] and in [18] was greater than 100 µM each time. Further, the TGI in experiment [19] and in experiment [20] was greater than 100 µM in each case.

Take `COc1ccccc1CNCc1nc2ccccc2[nH]1`: the TGI in experiment [1], in experiment [2], in experiment [3], in experiment [4], in experiment [5] and in experiment [6] was greater than 100 µM throughout. Further, the TGI in experiment [7], in experiment [8], in experiment [9], in experiment [10], in [11] and in experiment [12] was greater than 100 µM throughout. Further, the TGI in experiment [13], in experiment [14], in experiment [15], in experiment [16], in experiment [17] and in experiment [18] was greater than 100 µM each time. Further, the TGI in experiment [19] and in [20] was greater than 100 µM throughout.

On to `CC(Oc1ccc(Cl)cc1Cl)C(=O)NN1C(=O)CSC1c1ccc(Cl)cc1` (stereo not given), for which the TGI in experiment [1] is greater than 100 µM; in [2] it was greater than 100 µM; in experiment [3] it was 80 µM; in experiment [4], greater than 100 µM; in experiment [5], 41.3 µM; in [6], greater than 100 µM. In addition, the TGI in [7] is 37.8 µM; in experiment [8], 39.2 µM; in [9], greater than 100 µM; in experiment [10], 80.1 µM; in experiment [11], greater than 100 µM; in experiment [12], greater than 100 µM. Besides, the TGI in experiment [13] was greater than 100 µM; in experiment [14] it was 34.2 µM; in [15] it was greater than 100 µM; in [16], greater than 100 µM; in experiment [17], greater than 100 µM; in [18] it was greater than 100 µM. In addition, the TGI in experiment [19] and in experiment [20] was greater than 100 µM in each case.

`C/C(=N/NC(=S)N1CCCC1)c1cccc(/C(C)=N\NC(=S)N2CCCC2)n1`: the TGI is 6.85 µM in [1]; 9.39 µM in [2]; 2.59 µM in [3]; greater than 100 µM in experiment [4]; 7.58 µM in experiment [5]; 4.14 µM in [6]. For the same compound, the TGI turned out to be 5.73 µM in experiment [7]; 3.76 µM in [8]; 5.13 µM in experiment [9]; 2.18 µM in experiment [10]; 3.71 µM in experiment [11]; 5.1 µM in experiment [12]. For the same compound, the TGI in experiment [13] was 0.891 µM; in [14], 3.37 µM; in experiment [15] it was greater than 100 µM; in experiment [16] it was 37.1 µM; in [17], 18.1 µM; in [18], 12.1 µM. Further, the figures for the TGI in [19] and in experiment [20] were 3.63 µM and 2.24 µM, respectively.

Take `Cc1cc(NCC2CC/C(=C\C=C\c3ccccc3)C2=O)no1` (stereo not given): the TGI in experiment [1], in experiment [2], in experiment [3], in experiment [4], in [5] and in [6] was greater than 100 µM in each case. For the same compound, the TGI in experiment [7], in [8], in experiment [9], in experiment [10], in experiment [11] and in experiment [12] was greater than 100 µM throughout. The TGI in experiment [13] is greater than 100 µM; in [14], greater than 100 µM; in [15] it was greater than 100 µM; in [16], greater than 100 µM; in [17] it was 88.8 µM; in [18], greater than 100 µM. In addition, the TGI in experiment [19] and in [20] was greater than 100 µM throughout.

Regarding `NC(=O)NC(=O)c1ccc(NC(=O)CBr)cc1`, the TGI in experiment [1] was determined as 7.34 µM; in experiment [2], 4.03 µM; in experiment [3] it was 36 µM; in experiment [4], 2.99 µM; in [5], 1.01 µM; in experiment [6] it was 2.25 µM. Also, the TGI in [7] was 1.18 µM; in [8], 10.2 µM; in [9] it was 4.7 µM; in [10], 2.61 µM; in [11], 2.68 µM; in [12] it was 3.42 µM. Besides, the TGI was 4.81 µM in experiment [13]; 1.52 µM in experiment [14]; 3.92 µM in [15]; 4.78 µM in experiment [16]; 3.59 µM in experiment [17]; greater than 49.8 µM in experiment [18]. In addition, the TGI is 9.74 µM in experiment [19] and 27.3 µM in experiment [20].

Take `COc1ccc(NC(C)=O)cc1N1C(=O)/C(=C\c2cc(OC)c(OC)c(OC)c2)S(=O)(=O)C1c1ccccc1` (stereo not given): the TGI in [1], in experiment [2], in experiment [3], in experiment [4], in [5] and in experiment [6] was greater than 100 µM in each case. The TGI in experiment [7], in experiment [8], in experiment [9], in [10], in experiment [11] and in [12] was greater than 100 µM in each case. Also, the TGI in [13], in experiment [14], in [15], in [16], in [17] and in experiment [18] was greater than 100 µM each time. The TGI in experiment [19] and in experiment [20] was greater than 100 µM throughout.

The values are drawn from PubChem BioAssay (NCI).
